According to US3984393A, “Aminoglycoside antibiotics” (The Upjohn Company, priority 1975, dated 1976):
Read-outs that look alike come from different tables or passages of the source.

What was measured:
[1] = tested on: P. mirabilis A-63; assay: standard microplate test in BHI Agar (MIC), P. mirabilis A-63; format: cell-based
Procedure, shortened: (§1)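 A standard microplate test on Brain Heart Infusion agar is run with compound at 1 mg/ml, incubated at 37°, and scored at 20 hours.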

[2] = tested on: P. morgani UC 3186; assay: standard microplate test in BHI Agar (MIC), P. morgani UC 3186; format: cell-based; conditions: 20 h, read-out: Minimum Inhibitory Concentration, P. morgani UC 3186, retest table, neamine control
Procedure, shortened: as §1

[3] = tested on: K. pneumoniae UC 58; assay: standard microplate test in BHI Agar (MIC), K. pneumoniae UC 58; format: cell-based; conditions: Klebsiella pneumoniae, UC58, 20 h, read-out: Minimum Inhibitory Concentration, K. pneumoniae UC 58
Procedure, shortened: as §1

[4] = tested on: S. marcescens UC 131; assay: standard microplate test in BHI Agar (MIC), S. marcescens UC 131; format: cell-based; conditions: Serratia marcescens, UC131, 20 h, read-out: Minimum Inhibitory Concentration, S. marcescens UC 131, retest table, neamine control
Procedure, shortened: as §1

[5] = tested on: S. aureus UC 746; assay: standard microplate test in BHI Agar (MIC), S. aureus UC 746; format: cell-based; conditions: Staphylococcus aureus, UC746, 20 h, 37°, first table, read-out: Minimum Inhibitory Concentration
Description: (§2) Compounds were also tested in a standard microplate test in Brain Heart Infusion (BHI) Agar, at a concentration of 1 mg/ml. Incubation is at 37° and end points are read at 20 hours. Brain Heart Infusion Agar (supplied by Difco Laboratories, Detroit, Michigan, U.S.A.) has the following composition: […]

[6] = tested on: Ps. aeruginosa UC 95; assay: standard microplate test in BHI Agar (MIC), Ps. aeruginosa UC 95; format: cell-based; conditions: Pseudomonas aeruginosa, UC95, 20 h, read-out: Minimum Inhibitory Concentration, Ps. aeruginosa UC 95
Procedure, shortened: as §1

[7] = tested on: S. hemolyticus UC 152; assay: standard microplate test in BHI Agar (MIC), S. hemolyticus UC 152; format: cell-based, Streptococcus hemolyticus; conditions: Streptococcus pyogenes, UC152, 20 h, read-out: Minimum Inhibitory Concentration, S. hemolyticus UC 152
Procedure, shortened: as §1

[8] = tested on: S. aureus UC 570; assay: standard microplate test in BHI Agar (MIC), S. aureus UC 570; format: cell-based; conditions: Staphylococcus aureus, UC570, 20 h, 37°, first table, read-out: Minimum Inhibitory Concentration
Description: as §2

[9] = tested on: S. flexneri UC 143; assay: standard microplate test in BHI Agar (MIC), S. flexneri UC 143; format: cell-based; conditions: retest table, neamine control
Procedure, shortened: as §1

[10] = tested on: St. faecalis UC 694; assay: standard microplate test in BHI Agar (MIC), St. faecalis UC 694; format: cell-based; conditions: Enterococcus faecalis, UC694, 20 h
Procedure, shortened: as §1

[11] = tested on: S. aureus UC 76; assay: standard microplate test in BHI Agar (MIC), S. aureus UC 76; format: cell-based, Staphylococcus aureus; conditions: Staphylococcus aureus, UC76, 20 h
Procedure, shortened: as §1

[12] = tested on: S. schottmuelleri UC 126; assay: standard microplate test in BHI Agar (MIC), S. schottmuelleri UC 126; format: cell-based; conditions: 20 h, read-out: Minimum Inhibitory Concentration
Description: Compounds were also tested in a standard microplate test in Brain Heart Infusion (BHI) Agar, at a concentration of 1 mg/ml. Incubation is at 37° and end points are read at 20 hours. Brain Heart Infusion Agar (supplied by Difco Laboratories, Detroit, Michigan, U.S.A.) has the following composition:
Compounds (7β), (7α) and (9) were tested again along with compounds (11) and (14β) against a neamine control using the same conditions as given above.

[13] = tested on: D. pneumoniae UC 41; assay: standard microplate test in BHI Agar (MIC), D. pneumoniae UC 41; format: cell-based; conditions: Streptococcus pneumoniae, UC41, 20 h, read-out: Minimum Inhibitory Concentration, D. pneumoniae UC 41
Procedure, shortened: as §1

[14] = tested on: S. typhi TG-3; assay: standard microplate test in BHI Agar (MIC), S. typhi TG-3; format: cell-based; conditions: Salmonella enterica, 20 h, S. typhi TG-3, retest table, neamine control, read-out: Minimum Inhibitory Concentration
Procedure, shortened: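 Test concentration 1 mg/ml, medium Brain Heart Infusion agar, microplate format. Incubation 37°, with the end point taken at 20 hours.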

[15] = tested on: E. coli UC 45; assay: standard microplate test in BHI Agar (MIC), E. coli UC 45; format: cell-based; conditions: Escherichia coli, UC45, 20 h, read-out: Minimum Inhibitory Concentration, E. coli UC 45
Procedure, shortened: as §1

[16] = tested on: P. rettgeri UC 339; assay: standard microplate test in BHI Agar (MIC), P. rettgeri UC 339; format: cell-based; conditions: Providencia rettgeri, UC339, 20 h, read-out: Minimum Inhibitory Concentration, P. rettgeri UC 339, retest table, neamine control
Procedure, shortened: as §1

[17] = tested on: P. vulgaris UC 93; assay: standard microplate test in BHI Agar (MIC), P. vulgaris UC 93; format: cell-based; conditions: Proteus vulgaris, UC93, 20 h, read-out: Minimum Inhibitory Concentration, P. vulgaris UC 93
Procedure, shortened: as §1

[18] = BHI agar, 37°, 20 h, first table
[19] = BHI agar, 37°, 20 h, first table, *run on different day
[20] = retest table, group (7β), (14β), neamine control
[21] = retest table, group (9), (11), (7α), neamine control

NC[C@H]1O[C@H](O[C@H]2[C@H](O)[C@@H](O)[C@H](N)C[C@@H]2N)[C@H](N)[C@@H](O)[C@@H]1O [Neamine, reference compound]
15.6 µg/mL: MIC [3, 19] | MIC ([14]; group (7β), (14β)) | MIC [17, 21]
250 µg/mL: Minimum Inhibitory Concentration ([1]; P. mirabilis A-63, retest table, group (7β), (14β), neamine control) | MIC ([1]; Proteus mirabilis, A63, 20 h, read-out: Minimum Inhibitory Concentration) | MIC ([4]; group (7β), (14β)) | MIC [5] | MIC [8] | MIC [17, 18]
3.9 µg/mL: MIC [3, 20] | MIC [7, 18] | MIC [7, 20]
500 µg/mL: MIC ([10]; read-out: Minimum Inhibitory Concentration, S. faecalis UC 694, retest table, group (7β), (14β), neamine control) | MIC ([10]; read-out: Minimum Inhibitory Concentration, S. faecalis UC 694, retest table, group (9), (11), (7α), neamine control) | MIC ([10]; read-out: Minimum Inhibitory Concentration, St. faecalis UC 694, BHI agar, 37°, 20 h, first table, *run on different day) | MIC ([16]; group (9), (11), (7α))
62.5 µg/mL: MIC ([2]; group (7β), (14β)) | MIC ([5]; *run on different day) | MIC ([8]; *run on different day) | MIC ([9]; Shigella flexneri, UC143, 20 h, group (9), (11), (7α), read-out: Minimum Inhibitory Concentration) | Minimum Inhibitory Concentration ([9]; group (7β), (14β)) | MIC ([11]; read-out: Minimum Inhibitory Concentration, S. aureus 284 UC 76, BHI agar, 37°, 20 h, first table, *run on different day) | MIC ([12]; BHI agar, 37°, first table, *run on different day) | MIC ([12]; BHI agar, 37°, first table) | MIC [12, 21] | MIC [13, 21] | MIC [15, 18] | MIC [15, 20] | MIC [15, 21] | MIC [17, 20]
31.2 µg/mL: MIC ([2]; group (9), (11), (7α)) | MIC ([11]; read-out: Minimum Inhibitory Concentration, S. aureus UC 76, retest table, group (7β), (14β), neamine control) | MIC ([11]; read-out: Minimum Inhibitory Concentration, S. aureus UC 76, retest table, group (9), (11), (7α), neamine control) | MIC [12, 20] | MIC [13, 20] | MIC ([14]; group (9), (11), (7α))
1000 µg/mL: MIC [6, 20] | MIC [6, 21] | MIC ([10]; read-out: Minimum Inhibitory Concentration, St. faecalis UC 694, BHI agar, 37°, 20 h, first table) | MIC ([16]; group (7β), (14β))
> 1000 µg/mL: MIC [6, 18] | MIC [6, 19] | MIC [13, 18] | MIC [13, 19]
7.8 µg/mL: MIC [3, 18] | MIC [3, 21] | MIC [7, 19]
125 µg/mL: MIC ([4]; group (9), (11), (7α)) | MIC ([11]; read-out: Minimum Inhibitory Concentration, S. aureus 284 UC 76, BHI agar, 37°, 20 h, first table) | MIC [15, 19] | MIC [17, 19]
2 µg/mL: MIC [7, 21]
